{"source": "patent US20210154161A1", "about": "“MODIFIED-RELEASE BUCILLAMINE COMPOSITIONS, KITS, AND METHODS FOR TREATING CYSTINURIA, ARTHRITIS, GOUT, AND RELATED DISORDERS” (ALTIBIO, INC., priority 2017, published 2021)", "key": {"[1]": {"test": "Short- and long-term stability of bucillamine in Beagle dog plasma supernatant (pre-crashed plasma)", "assay_type": "in vitro ADME", "procedure": "(§1) For the analysis, analytical stock solutions (1.00 mg/mL of the free drug) were prepared in DMSO. Also, three standards for use in the analysis were prepared in each of the following media, as follows: (1) in male Beagle plasma containing sodium heparin as the anticoagulant; (2) in Beagle plasma that had previously been treated with acetonitrile to precipitate and remove plasma proteins (the […] supernatant was diluted with acetonitrile (3:1 acetonitrile:plasma supernatant) to give pre-crashed Beagle plasma supernatant); and (3) in 10× diluted Beagle urine, diluted in water. The term “pre-crashed plasma” refers to plasma supernatant, obtained in the centrifugation step described above.\n(§2) Stability Testing: Finally, short-term and long-term stability of bucillamine in Beagle dog plasma, pre-crashed plasma (plasma supernatant), and urine were assessed using two bucillamine concentrations (50 ng/mL or 500 ng/mL) under each of the following two conditions: (1) storage on the bench top for 4 hours and (2) frozen at −80° C. for up to one month. Samples were considered stable if their concentrations were within ±20% of nominal. These samples met acceptable criteria for stability and results are presented below, in Tables 5, 6, and 7, showing the % bucillamine remaining in Beagle dog plasma (Table 5), plasma supernatant (Table 6), and urine (Table 7)."}, "[2]": {"test": "Free bucillamine plasma concentration after oral or intraduodenal dosing regimens", "assay_type": "in vivo, male Beagle dogs", "conditions": "for maximum plasma concentrations of free bucillamine (average): n=3 dogs", "procedure": "The objective of this study was to evaluate total and free plasma bucillamine, and urinary bucillamine, in male Beagle dogs following oral and intraduodenal administration of bucillamine, according to various dose regimens, to determine whether different regimens, simulating modified release in accordance with the present invention, would improve drug pharmacokinetics. Specifically, bucillamine formulations were administered to deliver 30 mg/kg per dog via single or multiple doses divided over a 12-hour period; and blood and urine samples then collected at different times post-dose.\nBucillamine formulations were administered to provide 30 mg/kg per dog according to five different dosage regimens (Leg 1, Leg 2, Leg 3, Leg 4, and Leg 5), as set forth in the table below. Leg 2, Leg 3, and Leg 4 (also referred to as Q6H, Q3H, and Q2H, respectively) were designed to simulate modified-release formulations, in accordance with certain embodiments of the present invention. Following administration, blood and urine samples were collected at the time points, or over the time intervals, also as indicated below.\nPreparation of Dosing Formulations: Capsules for Legs 1-5 were prepared and filled on the day of dosing, as follows. For Legs 1, 2, and 5, bucillamine was dry mixed with avicel and mannitol to make a 40:30:30 mixture of bucillamine to avicel to mannitol, respectively; for study Legs 3 and 4, a 20:40:40 mixture of bucillamine to avicel to mannitol, respectively, was prepared. The dry mixes were custom filled with the appropriate amount of powder to deliver the specified doses to each dog based, on their respective body weights.\nAnimal Dosing and Sample Collection: This non-clinical study followed established practices and standard operating procedures of Absorption Systems and Absorption Systems Inc., as well as the study protocol. Study groups each included three dogs. The dogs were housed one per cage. For Legs 1-4, the dogs were fasted for at least six hours prior to each administration of the formulation. For Legs 1-4, food was given approximately ten hours post initial dosing. Animals had free access to water throughout the study. For Leg 5, the dogs were fasted for at least sixteen hours prior to each administration of the formulation. For Leg 5, food was given approximately eight hours post initial dosing. Animals had free access to water throughout the study. Additionally, each dog received a 60 mL subcutaneous injection of saline (a 30 mL injection, into each two different sites) approximately 30 minutes prior to dosing, for hydration.\nIntraduodenal (ID) administration: Animals were anesthetized by a slow IV infusion of Propofol (6-10 mg/kg), or with an intramuscular injection of a cocktail containing ketamine (approximately 10-20 mg/kg), diazepam (3 mg/kg), and acepromazine (0.05 mg/kg) given IM about 5-10 minutes before intubation. Once animals were confirmed adequately anesthetized, they were intubated and maintained using isoflurane (approximately 1-5% in oxygen 1 to 4 L/min) as necessary until dosing was complete. Formulations were administered into the proximal duodenum via endoscopic guidance to verify the dosing site. The endoscope first was maneuvered into the pyloric sphincter with camera visualization of the proximal duodenum. Once there was confirmation that the endoscope was placed between the pylorus and proximal duodenum, the test article was delivered to the proximal duodenum followed by a 5 mL flush. Upon completion of the dosing, the animals were taken off the isoflurane and allowed to recover from anesthesia. Time points began upon completion of the entire dose procedure. Following each blood sampling time point, 15 mL of water was given to each dog via syringe. Approximately 30 minutes prior to the 0 hour blood collection, each dog received a subcutaneous injection of 60 mL of saline (a 30 mL injection into each of two different sites) for hydration. […]"}, "[3]": {"conditions": "majority of patients; 1,800 mg bucillamine over 7 days; 72 hours post-dose; without rescue drug; cited from earlier work"}, "[4]": {"test": "Short- and long-term stability of bucillamine in Beagle dog plasma", "assay_type": "in vitro ADME", "procedure": "as §2"}, "[5]": {"test": "Short- and long-term stability of bucillamine in Beagle dog urine", "assay_type": "in vitro ADME", "procedure": "as §1\nSamples were considered stable if their concentrations were within ±20% of nominal. These samples met acceptable criteria for stability and results are presented below, in Tables 5, 6, and 7, showing the % bucillamine remaining in Beagle dog plasma (Table 5), plasma supernatant (Table 6), and urine (Table 7)."}, "[6]": {"conditions": "50 ng/mL (low), -80 C freezer for 1 week"}, "[7]": {"conditions": "50 ng/mL (low), bench top (RT) for 4 hours"}, "[8]": {"conditions": "500 ng/mL (high), -80 C freezer for 1 week"}, "[9]": {"conditions": "500 ng/mL (high), bench top (RT) for 4 hours"}, "[10]": {"conditions": "Leg 1 (Q12H): PO, single 30 mg/kg dose"}}, "data": [{"smiles": "CC(C)(S)C(=O)N[C@@H](CS)C(=O)O", "note": "[bucillamine, N-(2-mercapto-2-methylpropionyl)-L-cysteine]", "values": [{"measurement": "% Bucillamine Remaining in Beagle Dog Plasma Supernatant", "setting": "[1]; [6]", "result": 94.3, "unit": "%"}, {"measurement": "% Bucillamine Remaining in Beagle Dog Plasma Supernatant", "setting": "[1]; 50 ng/mL (low), -80 C freezer for 2 week", "result": 99.1, "unit": "%"}, {"measurement": "% Bucillamine Remaining in Beagle Dog Plasma Supernatant", "setting": "[1]; 50 ng/mL (low), -80 C freezer for 4 week", "result": 107, "unit": "%"}, {"measurement": "% Bucillamine Remaining in Beagle Dog Plasma Supernatant", "setting": "[1]; [7]", "result": 105, "unit": "%"}, {"measurement": "% Bucillamine Remaining in Beagle Dog Plasma Supernatant", "setting": "[1]; [8]", "result": 97.2, "unit": "%"}, {"measurement": "% Bucillamine Remaining in Beagle Dog Plasma Supernatant", "setting": "[1]; 500 ng/mL (high), -80 C freezer for 2 week", "result": 110, "unit": "%"}, {"measurement": "% Bucillamine Remaining in Beagle Dog Plasma Supernatant", "setting": "[1]; 500 ng/mL (high), -80 C freezer for 4 week", "result": 119, "unit": "%"}, {"measurement": "% Bucillamine Remaining in Beagle Dog Plasma Supernatant", "setting": "[1]; [9]", "result": 117, "unit": "%"}, {"measurement": "time at which maximum plasma concentrations of free bucillamine were observed", "setting": "[2]; [10]", "result": 2, "unit": "hours post dosing"}, {"measurement": "maximum plasma concentrations of free bucillamine (average)", "setting": "[2]; [10]", "result": "2437 ± 728", "unit": "ng/mL"}, {"measurement": "maximum plasma concentrations of free bucillamine (average)", "setting": "[2]; Leg 2: PO 30 mg/kg as two 15 mg/kg doses at 0 and 6 h", "result": "3957 ± 1226", "unit": "ng/mL"}, {"measurement": "maximum plasma concentrations of free bucillamine (average)", "setting": "[2]; Leg 3 (Q3H): PO 30 mg/kg as four 7.5 mg/kg doses at 0, 3, 6, 9 h", "result": "4327 ± 1127", "unit": "ng/mL"}, {"measurement": "maximum plasma concentrations of free bucillamine (average)", "setting": "[2]; Leg 4: PO 30 mg/kg as six 5 mg/kg doses at 0, 2, 4, 6, 8, 10 h", "result": "1820 ± 471", "unit": "ng/mL"}, {"measurement": "maximum plasma concentrations of free bucillamine (average)", "setting": "[2]; Leg 5: ID, single 30 mg/kg dose", "result": "1187 ± 656", "unit": "ng/mL"}, {"measurement": "reduction in target joint pain scores from baseline", "setting": "[3]", "result": "at least 50%"}, {"measurement": "% Bucillamine Remaining in Beagle Dog Plasma", "setting": "[4]; [6]", "result": 114, "unit": "%"}, {"measurement": "% Bucillamine Remaining in Beagle Dog Plasma", "setting": "[4]; 50 ng/mL (low), -80 C freezer for 2 weeks", "result": 108, "unit": "%"}, {"measurement": "% Bucillamine Remaining in Beagle Dog Plasma", "setting": "[4]; 50 ng/mL (low), -80 C freezer for 4 weeks", "result": 114, "unit": "%"}, {"measurement": "% Bucillamine Remaining in Beagle Dog Plasma", "setting": "[4]; [7]", "result": 110, "unit": "%"}, {"measurement": "% Bucillamine Remaining in Beagle Dog Plasma", "setting": "[4]; [8]", "result": 96.4, "unit": "%"}, {"measurement": "% Bucillamine Remaining in Beagle Dog Plasma", "setting": "[4]; 500 ng/mL (high), -80 C freezer for 2 weeks", "result": 97.3, "unit": "%"}, {"measurement": "% Bucillamine Remaining in Beagle Dog Plasma", "setting": "[4]; 500 ng/mL (high), -80 C freezer for 4 weeks", "result": 107, "unit": "%"}, {"measurement": "% Bucillamine Remaining in Beagle Dog Plasma", "setting": "[4]; [9]", "result": 96.9, "unit": "%"}, {"measurement": "% Bucillamine Remaining in Beagle Dog Urine", "setting": "[5]; High (2500 ng/mL), -80 C freezer for 1 week", "result": 102, "unit": "%"}, {"measurement": "% Bucillamine Remaining in Beagle Dog Urine", "setting": "[5]; High (2500 ng/mL), -80 C freezer for 2 week", "result": 101, "unit": "%"}, {"measurement": "% Bucillamine Remaining in Beagle Dog Urine", "setting": "[5]; High (2500 ng/mL), -80 C freezer for 4 week", "result": 96.3, "unit": "%"}, {"measurement": "% Bucillamine Remaining in Beagle Dog Urine", "setting": "[5]; High (2500 ng/mL), bench top (RT) for 4 hours", "result": 102, "unit": "%"}, {"measurement": "% Bucillamine Remaining in Beagle Dog Urine", "setting": "[5]; Low (250 ng/mL), -80 C freezer for 1 week", "result": 97.7, "unit": "%"}, {"measurement": "% Bucillamine Remaining in Beagle Dog Urine", "setting": "[5]; Low (250 ng/mL), -80 C freezer for 2 week", "result": 90.9, "unit": "%"}, {"measurement": "% Bucillamine Remaining in Beagle Dog Urine", "setting": "[5]; Low (250 ng/mL), -80 C freezer for 4 week", "result": 88.9, "unit": "%"}, {"measurement": "% Bucillamine Remaining in Beagle Dog Urine", "setting": "[5]; Low (250 ng/mL), bench top (RT) for 4 hours", "result": 93.7, "unit": "%"}]}]}
